According to patent US9044527B2, “Wound care products with peracid compositions” (CHD Bioscience, Inc., priority 2011, dated 2015):

Columns and labels:
e. coli 25922 [1] = experiment: Kirby-Bauer growth inhibition (disk diffusion) assay; format: cell-based; settings: 10 μg gentamicin disc, 6 mm, 16-18 hours
Description: Kirby-Bauer growth inhibition (or disk diffusion susceptibility testing) is used to quantify the efficiency of antibiotics and/or to test the sensitivity of particular rapidly growing bacteria to an antibiotic.
A bacterial inoculum was prepared from log-phase cultures (ATCC e. coli 25922) to a standard density (approximately 1×10^8 CFU/ml, which is equivalent to a 0.5 McFarland turbidity). The inoculum was applied to a culture dish with Muller-Hinton nutrient agar.
Dissolvable thin film biocide preparations were prepared as Examples 1 or 3, but the spiked biocide was used at an original film-pour concentration of 20,000 ppm (recall that when the film-pour dries, it loses approximately 16-25× of its weight through solvent evaporation, and thus the final concentration of the biocide is much higher than the film-pour, although some is lost through evaporation as evidenced by the acetic acid smell during dry-down).
Samples of hydrogel (single FT cycle) were also used in some experiments where spiked biocide films were applied to the hydrogel surface and the bi-layer sample applied to the culture surface.
At the time of infection, test materials are applied to the surface of the agar. After a growth a 35-37° C. in air, for period of 16-18 hours, the diameter of the zone of inhibited bacteria growth can be visualized and measured with calipers. […]

e. coli 25922 [2] = settings: 10 μg gentamicin disc, 6 mm; cited from earlier work
[3] = system: methicillin resistant staphylococcus aureus (MRSA); experiment: MRSA streaked blood agar plate treated with PPA film discs (simulated MIC test); format: cell-based; settings: 6 mm film discs made with 100 ppm and 1000 ppm PPA compound, incubated overnight
Text: This bulk film material illustrated in the drawings can be easily fit between layers of dressing or gauze and protected from the moisture in the bandage. […] To test efficacy and stability of the incorporated PPA compound, six millimeter discs were cut out of the PPA treated matrices and placed onto a methicillin resistant staphylococcus aureus (MRSA) streaked blood agar plate. […] This method simulated the well-known minimum inhibitory concentration (MIC) test. The blood agar plates were incubated overnight at optimal temperature and then observed for microbial kill.
The control film disc was the diameter of the grown of the 1000 ppm disc. The discs were placed on the blood agar plate and were dissolved by the moisture from the agar which allowed the PPA compound to migrate out of the film. […] Thus the 1000 ppm ratio of ppm concentration to the circle of kill diameter was greater than for the 100 ppm concentration to the circle diameter in millimeters.

Compound | control zone inhibition diameter (e. coli 25922 [1]) | zone inhibition diameter, published quality-control data (e. coli 25922 [2]) | kill of MRSA (circle of kill diameter) [3]
gentamicin [Sensi-Disc] | agrees with published quality-control data | 19-26 mm | 
CC(=O)C(=O)OO [PPA compound, peroxy pyruvic acid] |  |  | in proportion to the PPA concentration in the disc
